According to article PMC4492822 (EMBO Molecular Medicine, 2015):

Assays:
A549 = test: Annexin V / PI flow cytometry, 72 h; type: cell-based, human
Method: (§1) Histograms depicting early apoptosis (Annexin V positive) and late apoptosis (PI positive) in cells treated with the indicated amounts of RK-33. Cells were either treated with DMSO (controls) or IC50 and IC75 amounts of RK-33. After 72 hours incubation, cells were harvested and stained for Annexin V and PI and analyzed by flow cytometry.

[1] = tested on: A549 human lung cancer cells; test: Orthotopic A549 lung cancer model with radiation; type: in vivo, athymic NCr-nu/nu mice; details: i.p. RK-33 with radiation, schedule as Fig6C
Method: Athymic NCr-nu/nu female mice 4–5 weeks old were purchased from NCI Frederick. A total of 1 × 10^6 A549 cells were injected in the tail vein of ten mice. Treatment (five animals per group) was started 4 weeks after inoculation of tumor cells. Since tumor volumes could not be determined by micro-CT, tumor burden was established at necropsy by histopathology, 8 weeks after inoculation of tumor cells. All five lung lobes were paraffin-embedded and mid-lung sections were stained with H&E. Slides were digitalized; lung and tumor surface area was calculated with ImageScope (Aperio Technologies, Vista, CA, USA), as tumor burden = tumor surface/lung surface.
Cells were irradiated at room temperature with 0.5 Gy/min to the desired dose using a Gammacell 40 ^137Cs irradiator. For in vivo experiments, mice were treated using the Small Animal Radiation Research Platform (Wong et al, [2008]). The tumors were irradiated with a circular beam of 1 cm diameter.

H3255 cells = test: Immunoblotting of MAPK pathway proteins; type: cell-based; details: 7.5 μM or 10 μM, 24 h
Method: Cell lysate was prepared with TB buffer method. For immunoblotting, ~25 μg protein was loaded on 10% SDS–PAGE gels. […] The blots were developed with clarity Western ECL (Bio-Rad, Hercules, CA, USA) and imaged with G:BOX Chemi XR5 (Syngene, Frederick, MD, USA).

[2] = tested on: TCF4 activity in A549 cells; test: TCF reporter assay (TOP/FOP-FLASH); type: cell-based, human; details: 0, 1, 2, and 3 μM; wild-type and β-catenin-overexpressing cells
Method: Transcriptional activity of TCF4 was assayed using the dual luciferase assay (Promega, Madison, WI, USA) according to the manufacturer's instructions. Briefly, 1.5 × 10^4 A549 or H1299 cells were transfected with 500 ng of TOP-FLASH and control FOP-FLASH constructs along with 50 ng of phRL Renilla constructs as transfection controls as well as with 500 ng β-catenin constructs when indicated. Cells were cultured for 24 h and then lysed in passive lysis buffer. Luminescence was detected using a luminometer (Berthold Sirius, Oak Ridge, TN, USA). Relative TCF4 promoter activity was calculated by dividing firefly luminescence by Renilla luminescence, and then normalized TOP-FLASH was divided by normalized FOP-FLASH, which was finally normalized to vector or DMSO control cells. All experiments were repeated three times, and differences were assessed by the paired t-test.

H460 = test: Annexin V / PI flow cytometry, 72 h; type: cell-based
Method: as §1

H358 = test: Annexin V / PI flow cytometry, 72 h; type: cell-based
Method: as §1

H1299 = test: Annexin V / PI flow cytometry, 72 h; type: cell-based
Method: as §1

H196 = test: Annexin V / PI flow cytometry, 72 h; type: cell-based
Method: as §1

DDX3 = DDX3 (Homo sapiens, UniProt O00571); test: Biotin bead pull-down assay with biotinylated RK-33 (AK-298, SK-153), immunoblot; type: binding; details: biotinylated RK-33 molecules, 10 μM
Method: Mean from 3 replicates with SD. • J, K Colony-forming assay of A549 and H3255 cells treated with RK-33 and with various doses of radiation 4 h later. Curves were fitted with a quadratic polynomial equation. Mean from 2 replicates with SD. P-values were determined by the extra sum of squares F-test. Source data are available online for this figure.
Two plates of 70% confluent cells were lysed with IP lysis buffer (Tris–HCl (pH 7.4) 25 mM, NaCl 150 mM, EDTA 1 mM, NP-40 1%, glycerol 5%, protease inhibitor). […] Streptavidin beads were added and incubated for 1 h at room temperature. The biotin-bead–RK-33 complex was extracted with a magnetic stand and washed seven times with PBS. Proteins were analyzed by immunoblot.

H1299 cells = test: Cell cycle analysis by flow cytometry; type: cell-based; details: 0, 2, 4, and 6 μM, dose-dependent
Method: A549 and H1299 cells were plated at 1 × 10^5 cells per well of a 6-well plate. Cell cycle was carried out as previously described (Vesuna et al, [2012]). Briefly, cells were trypsinized 24 h after plating and fixed in 70% ethanol overnight at −20°C. Fixed cells were washed with PBS and resuspended in DNA-staining solution (5 μg/ml propidium iodide, 0.5 mg/ml RNase A) for 1 h at room temperature. Cell cycle acquisition was performed on a FACScan I or FACSCalibur instrument (BD Biosciences, San Jose, CA, USA). Independent experiments were repeated three times. Data were analyzed using FlowJo software (Tree Star Inc., Ashland, OR, USA).

A549 cells = test: 53BP1 and γH2AX foci after radiation (immunofluorescence); type: cell-based, human; details: 6 μM, 12 h before 2-Gy radiation
Method: A549 cells were allowed to attach overnight in chamber slides. For DDR experiments (Fig6A), cells were incubated with RK-33 for 12 h and then radiated with 2 Gy. After 0, 1, 6, and 24 h, cells were fixed and stained. Cells were fixed for 15 min in 4% formalin, washed with PBS, permeabilized (PBS containing 0.2% Triton X-100) for 5 min, and blocked for 30 min with 10% goat serum. […] Next, cells were washed with PBS and incubated with secondary antibodies, CY3 (1:200, goat anti-mouse, 115-165-071, Jackson Immuno Research) or Alexa fluor 488 (1:200, goat anti-rabbit, A11034, Invitrogen) for 1 h. Cells were washed, nuclei-stained with 4′,6-diamidino-2-phenylindole (DAPI), and cover-slipped. Photographs were taken with Nikon Eclipse 80i fluorescence microscope using a CoolSnap ES camera (Roper scientific, Sarasota, FL, USA).

DDX3, sequence (O00571 2-582): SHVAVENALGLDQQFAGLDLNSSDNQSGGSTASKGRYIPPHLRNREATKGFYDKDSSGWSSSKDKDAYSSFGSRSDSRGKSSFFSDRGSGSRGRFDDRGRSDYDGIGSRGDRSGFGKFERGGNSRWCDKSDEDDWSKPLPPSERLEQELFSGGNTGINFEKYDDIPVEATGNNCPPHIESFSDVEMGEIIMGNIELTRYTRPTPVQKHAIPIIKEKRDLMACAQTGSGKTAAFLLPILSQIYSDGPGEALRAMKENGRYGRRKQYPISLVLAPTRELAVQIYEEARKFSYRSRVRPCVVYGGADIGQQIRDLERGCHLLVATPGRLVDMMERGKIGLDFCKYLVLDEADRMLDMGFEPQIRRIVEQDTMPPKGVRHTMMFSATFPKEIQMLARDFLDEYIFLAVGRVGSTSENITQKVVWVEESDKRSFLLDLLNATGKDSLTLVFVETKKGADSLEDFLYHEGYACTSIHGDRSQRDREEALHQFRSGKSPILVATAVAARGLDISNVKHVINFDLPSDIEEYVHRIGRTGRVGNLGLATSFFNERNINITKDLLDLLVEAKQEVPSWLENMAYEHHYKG

Q: What does the source list for “diimidazo[4,5-d:4′,5′-f]-[1,3]diazepine [RK-33]”?
A: cells in gate of Annexin V/PI plot (A549; 9 uM, first (upper) value of panel): 81.7; cells in gate of Annexin V/PI plot (A549; 9 uM, second value of panel): 4.44; cells in gate of Annexin V/PI plot (A549; 9 uM, third (lowest) value of panel): 4.73; cells in gate of Annexin V/PI plot (A549; 10.5 uM, first (upper) value of panel): 85.3; cells in gate of Annexin V/PI plot (A549; 10.5 uM, second value of panel): 5.99; cells in gate of Annexin V/PI plot (A549; 10.5 uM, third (lowest) value of panel): 2.26; enhancement of radiation-induced tumor regression (tumor burden) [1]: 2.6 fold; ERK1/2 phosphorylation (H3255 cells): increase of ERK1/2 phosphorylation; TCF activity [2]: reduced TCF activity significantly; cells in gate of Annexin V/PI plot (H460; 6.5 uM, lower value of panel): 62; cells in gate of Annexin V/PI plot (H460; 6.5 uM, upper value of panel): 25.6; cells in gate of Annexin V/PI plot (H460; 9 uM, lower value of panel): 50.1; cells in gate of Annexin V/PI plot (H460; 9 uM, upper value of panel): 34.7; cells in gate of Annexin V/PI plot (H358; 11 uM, lower line, first value): 26.6; cells in gate of Annexin V/PI plot (H358; 11 uM, lower line, second value): 31.9; cells in gate of Annexin V/PI plot (H358; 11 uM, upper value of panel): 34.9; cells in gate of Annexin V/PI plot (H358; 16 uM, lower line, first value): 26.8; cells in gate of Annexin V/PI plot (H358; 16 uM, lower line, second value): 26.5; cells in gate of Annexin V/PI plot (H358; 16 uM, upper value of panel): 40.8; cells in gate of Annexin V/PI plot (H1299; 7.5 uM, lower line, first value): 40.4; cells in gate of Annexin V/PI plot (H1299; 7.5 uM, lower line, second value): 12.6; cells in gate of Annexin V/PI plot (H1299; 7.5 uM, upper value of panel): 33.7; cells in gate of Annexin V/PI plot (H1299; 13 uM, lower line, first value): 36; cells in gate of Annexin V/PI plot (H1299; 13 uM, lower line, second value): 7.3; cells in gate of Annexin V/PI plot (H1299; 13 uM, upper value of panel): 41.5; cells in gate of Annexin V/PI plot (H196; 3 uM, lower value of panel): 43.3; cells in gate of Annexin V/PI plot (H196; 3 uM, upper value of panel): 52.7; cells in gate of Annexin V/PI plot (H196; 4.5 uM, lower value of panel): 36.6; cells in gate of Annexin V/PI plot (H196; 4.5 uM, upper value of panel): 60.9; binding to DDX3 in pull-down (DDX3): binds specifically to DDX3; cell cycle effect (H1299 cells): G1 arrest; persistence of radiation-induced DNA damage (53BP1 and γ-H2AX foci) (A549 cells): DNA damage persisted well beyond 24 h
